Laboratory results taken from US20220323406A1, “METHODS AND COMPOSITIONS FOR DIFFERENTIATING STEM CELLS” (Massachusetts Institute of Technology, priority 2019, published 2022).

Experiments:
[1] = test system: ENR+CD organoids; test: Primary screen: ATP (CellTiter-Glo 3D, CTG) cell number/viability, 2.5-D 384-well ENR+CD organoids;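 note: compounds given at plating and again on day 3 over a 6-day differentiation from ENR+CV stem-cell-enriched precursors, ATP measured on day 6, plate median as control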
[2] = test system: ENR+CD organoids (ISC to Paneth cell differentiation); test: Primary screen: basal (non-stimulated) lysozyme secretion LYZ.NS, 2.5-D 384-well ENR+CD organoid differentiation; format: cell-based, mouse
Excerpt: (§1) High-throughput screening.

[3] = test system: ENR+CD organoids (ISC to Paneth cell differentiation); test: Primary screen: CCh-stimulated lysozyme secretion LYZ.S, 2.5-D 384-well ENR+CD organoid differentiation; format: cell-based, mouse; settings: primary screen
Excerpt: as §1

[4] = primary screen, dose 0.08 uM, FC relative to plate median
[5] = primary screen, dose 0.40 uM, FC relative to plate median
[6] = primary screen, dose 2.00 uM, FC relative to plate median
[7] = primary screen, dose 10.00 uM, FC relative to plate median
[8] = primary screen, dose 0.08 uM, standard z score
[9] = primary screen, dose 0.40 uM, standard z score
[10] = primary screen, dose 2.00 uM, standard z score
[11] = primary screen, dose 10.00 uM, standard z score
[12] = primary screen, standard z score, dose 0.08 uM
[13] = primary screen, standard z score, dose 0.40 uM
[14] = primary screen, standard z score, dose 2.00 uM
[15] = primary screen, standard z score, dose 10.00 uM
[16] = primary screen; dose 0.08 uM; FC vs plate median
[17] = primary screen; dose 0.40 uM; FC vs plate median
[18] = primary screen; dose 2.00 uM; FC vs plate median
[19] = primary screen; dose 10.00 uM; FC vs plate median

CCC(=O)NCC[C@@H]1CCc2ccc3c(c21)CCO3 [Ramelteon]
Dose.FC.CTG [1, 4]: −0.028 log2 fold change | Dose.FC.CTG [1, 5]: 0.155 log2 fold change | Dose.FC.CTG [1, 6]: −0.315 log2 fold change | Dose.FC.CTG [1, 7]: 0.150 log2 fold change | Dose.FC.LYZ.NS [2, 4]: 0.062 log2 fold change | Z.LYZ.NS [2, 8]: 0.537 | Dose.FC.LYZ.NS [2, 5]: 0.082 log2 fold change | Z.LYZ.NS [2, 9]: 0.712 | Dose.FC.LYZ.NS [2, 6]: −0.013 log2 fold change | Z.LYZ.NS [2, 10]: −0.109 | Dose.FC.LYZ.NS [2, 7]: 0.007 log2 fold change | Z.LYZ.NS [2, 11]: 0.062 | Dose.FC.LYZ.S ([3]; dose 0.08 uM, FC relative to plate median): 0.030 log2 fold change | Dose.FC.LYZ.S ([3]; dose 0.40 uM, FC relative to plate median): 0.103 log2 fold change | Dose.FC.LYZ.S ([3]; dose 2.00 uM, FC relative to plate median): −0.009 log2 fold change | Dose.FC.LYZ.S ([3]; dose 10.00 uM, FC relative to plate median): 0.001 log2 fold change

O=C(Nc1cccc(C(F)(F)F)c1)Nc1cc(S(=O)(=O)NC2CC2)ccc1-c1ccsc1 [AGI-6780]
Dose.FC.CTG ([1]; primary screen, dose 0.08 uM): 0.281 log2 fold change | Z.CTG (standard z score) ([1]; primary screen, dose 0.08 uM): 0.671 | Dose.FC.CTG ([1]; primary screen, dose 0.40 uM): 0.231 log2 fold change | Z.CTG (standard z score) ([1]; primary screen, dose 0.40 uM): 0.551 | Dose.FC.CTG ([1]; primary screen, dose 2.00 uM): 0.298 log2 fold change | Z.CTG (standard z score) ([1]; primary screen, dose 2.00 uM): 0.713 | Dose.FC.CTG ([1]; primary screen, dose 10.00 uM): 0.107 log2 fold change | Z.CTG (standard z score) ([1]; primary screen, dose 10.00 uM): 0.256 | Dose.FC.LYZ.NS ([2]; primary screen, dose 0.08 uM): 0.069 log2 fold change | Z.LYZ.NS (standard z score) ([2]; primary screen, dose 0.08 uM): 0.597 | Dose.FC.LYZ.NS ([2]; primary screen, dose 0.40 uM): 0.031 log2 fold change | Z.LYZ.NS (standard z score) ([2]; primary screen, dose 0.40 uM): 0.268 | Dose.FC.LYZ.NS ([2]; primary screen, dose 2.00 uM): 0.043 log2 fold change | Z.LYZ.NS (standard z score) ([2]; primary screen, dose 2.00 uM): 0.374 | Dose.FC.LYZ.NS ([2]; primary screen, dose 10.00 uM): −0.090 log2 fold change | Z.LYZ.NS (standard z score) ([2]; primary screen, dose 10.00 uM): −0.785 | Dose.FC.LYZ.S ([3]; dose 0.08 uM): 0.095 log2 fold change | Dose.FC.LYZ.S ([3]; dose 0.40 uM): 0.156 log2 fold change | Dose.FC.LYZ.S ([3]; dose 2.00 uM): 0.055 log2 fold change | Dose.FC.LYZ.S ([3]; dose 10.00 uM): −0.054 log2 fold change

Cc1cc(Nc2ncc(Cl)c(Nc3ccccc3S(=O)(=O)C(C)C)n2)c(OC(C)C)cc1C1CCNCC1 [LDK378]
Dose.FC.CTG (log2 fold change) ([1]; primary screen, dose 0.08 uM): 0.135 | Dose.FC.CTG (log2 fold change) ([1]; primary screen, dose 0.40 uM): 0.004 | Dose.FC.CTG (log2 fold change) ([1]; primary screen, dose 2.00 uM): −0.364 | Dose.FC.CTG (log2 fold change) ([1]; primary screen, dose 10.00 uM): −1.292 | Dose.FC.LYZ.NS (log2 fold change) ([2]; primary screen, dose 0.08 uM): 0.061 | Z.LYZ.NS (standard z score) ([2]; primary screen, dose 0.08 uM): 0.534 | Dose.FC.LYZ.NS (log2 fold change) ([2]; primary screen, dose 0.40 uM): −0.053 | Z.LYZ.NS (standard z score) ([2]; primary screen, dose 0.40 uM): −0.465 | Dose.FC.LYZ.NS (log2 fold change) ([2]; primary screen, dose 2.00 uM): −0.195 | Z.LYZ.NS (standard z score) ([2]; primary screen, dose 2.00 uM): −1.702 | Dose.FC.LYZ.NS (log2 fold change) ([2]; primary screen, dose 10.00 uM): −0.338 | Z.LYZ.NS (standard z score) ([2]; primary screen, dose 10.00 uM): −2.939 | Dose.FC.LYZ.S (log2 fold change) ([3]; dose 0.08 uM): 0.118 | Dose.FC.LYZ.S (log2 fold change) ([3]; dose 0.40 uM): −0.047 | Dose.FC.LYZ.S (log2 fold change) ([3]; dose 2.00 uM): −0.281 | Dose.FC.LYZ.S (log2 fold change) ([3]; dose 10.00 uM): −0.487

NC(=O)C1CCCc2c1[nH]c1ccc(Cl)cc21 (centres unmarked) [EX 527 (Selisistat)]
Dose.FC.CTG ([1]; primary screen, dose 0.08 uM): 0.240 log2 fold change | Dose.FC.CTG ([1]; primary screen, dose 0.40 uM): 0.174 log2 fold change | Dose.FC.CTG ([1]; primary screen, dose 2.00 uM): 0.341 log2 fold change | Dose.FC.CTG ([1]; primary screen, dose 10.00 uM): 0.320 log2 fold change | Z.CTG [1, 12]: 0.574 | Z.CTG [1, 13]: 0.415 | Z.CTG [1, 14]: 0.814 | Z.CTG [1, 15]: 0.766 | Dose.FC.LYZ.NS ([2]; primary screen, dose 0.08 uM): 0.100 log2 fold change | Dose.FC.LYZ.NS ([2]; primary screen, dose 0.40 uM): 0.059 log2 fold change | Dose.FC.LYZ.NS ([2]; primary screen, dose 2.00 uM): 0.030 log2 fold change | Dose.FC.LYZ.NS ([2]; primary screen, dose 10.00 uM): 0.057 log2 fold change | Z.LYZ.NS [2, 12]: 0.871 | Z.LYZ.NS [2, 13]: 0.512 | Z.LYZ.NS [2, 14]: 0.261 | Z.LYZ.NS [2, 15]: 0.494 | Dose.FC.LYZ.S ([3]; dose 0.08 uM): 0.062 log2 fold change | Dose.FC.LYZ.S ([3]; dose 0.40 uM): 0.047 log2 fold change | Dose.FC.LYZ.S ([3]; dose 2.00 uM): −0.051 log2 fold change | Dose.FC.LYZ.S ([3]; dose 10.00 uM): −0.011 log2 fold change

CC(=O)c1c(C)c2cnc(Nc3ccc(N4CCNCC4)cn3)nc2n(C2CCCC2)c1=O.Cl [Palbociclib (PD-0332991) HCl]
Z.CTG [1, 8]: 0.404 | Z.CTG [1, 9]: −0.836 | Z.CTG [1, 10]: −0.199 | Z.CTG [1, 11]: −1.617 | Dose.FC.CTG [1, 16]: 0.169 log2 fold change | Dose.FC.CTG [1, 17]: −0.350 log2 fold change | Dose.FC.CTG [1, 18]: −0.083 log2 fold change | Dose.FC.CTG [1, 19]: −0.677 log2 fold change | Z.LYZ.NS [2, 8]: −0.055 | Z.LYZ.NS [2, 9]: −0.248 | Z.LYZ.NS [2, 10]: −0.440 | Z.LYZ.NS [2, 11]: −1.150 | Dose.FC.LYZ.NS [2, 16]: −0.006 log2 fold change | Dose.FC.LYZ.NS [2, 17]: −0.029 log2 fold change | Dose.FC.LYZ.NS [2, 18]: −0.051 log2 fold change | Dose.FC.LYZ.NS [2, 19]: −0.132 log2 fold change | Dose.FC.LYZ.S ([3]; dose 0.08 uM, FC vs plate median): 0.004 log2 fold change | Dose.FC.LYZ.S ([3]; dose 0.40 uM, FC vs plate median): −0.042 log2 fold change | Dose.FC.LYZ.S ([3]; dose 2.00 uM, FC vs plate median): −0.122 log2 fold change | Dose.FC.LYZ.S ([3]; dose 10.00 uM, FC vs plate median): −0.203 log2 fold change
